# In patent US11820766B2, “Monoacylglycerol lipase modulators” (Janssen Pharmaceutica NV, priority 2018, dated 2023):
# Molecular target: T1, human MGL from HeLa cells (Homo sapiens, UniProt Q99685)
# T1 construct: combining endogenously expressed MGL from HeLa cells with test compounds; endogenous in cells; host or cells: HeLa cells / cell homogenates
# T1 sequence (Q99685 1-303): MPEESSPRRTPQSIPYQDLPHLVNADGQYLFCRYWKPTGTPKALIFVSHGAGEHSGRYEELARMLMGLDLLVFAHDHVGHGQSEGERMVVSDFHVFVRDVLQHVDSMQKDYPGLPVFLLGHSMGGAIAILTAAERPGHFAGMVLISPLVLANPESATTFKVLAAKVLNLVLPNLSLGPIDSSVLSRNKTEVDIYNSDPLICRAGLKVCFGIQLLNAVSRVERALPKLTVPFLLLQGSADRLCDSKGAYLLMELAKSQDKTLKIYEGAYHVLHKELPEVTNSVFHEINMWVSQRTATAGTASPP
# Assay: In vitro MGL activity assay: [glycerol-1,3-3H]-oleyl glycerol cleavage by MGL from HeLa cells
# Assay type: biochemical
# Conditions: 300 nM [Glycerol-1,3-3H]-oleyl glycerol, one hour
# Description: MGL is the predominant hydrolase in HeLa cells/cell homogenates.
row,SMILES,IC50
1,"COc1cc(Cl)cc(-c2c3c(nn2C)[C@H](C)N(C(=O)c2c(C)nc4ccccn24)CC3)c1 [Example 395, [(7S)-3-(3-Chloro-5-methoxy-phenyl)-2,7-dimethyl-5,7-dihydro-4H-pyrazolo[3,4-c]pyridin-6-yl]-(2-methylimidazo[1,2-a]pyridin-3-yl) methanone]",6.73 nM
2,"C[C@H]1c2nn(C)c(-c3cc(F)c(F)c(F)c3)c2CCN1C(=O)c1cnc2[nH]ccc2c1 [Example 368, [(7S)-2,7-Dimethyl-3-(3,4,5-trifluorophenyl)-5,7-dihydro-4H-pyrazolo[3,4-c]pyridin-6-yl]-(1H-pyrrolo[2,3-b]pyridin-5-yl)methanone]",9.36 nM
3,"C[C@H]1c2nn(C)c(-c3cc(F)c(F)c(F)c3)c2CCN1C(=O)c1ccnc2cccnc12 [Example 485, [(7S)-2,7-Dimethyl-3-(3,4,5-trifluorophenyl)-5,7-dihydro-4H-pyrazolo[3,4-c]pyridin-6-yl]-(1,5-naphthyridin-4-yl)methanone]",33.2 nM
4,"Cc1nn2ncccc2c1C(=O)N1CCc2c(nn(C)c2-c2cc(F)c(F)c(F)c2)[C@@H]1C [Example 442, [(7S)-2,7-Dimethyl-3-(3,4,5-trifluorophenyl)-5,7-dihydro-4H-pyrazolo[3,4-c]pyridin-6-yl]-(2-methylpyrazolo[1,5-b]pyridazin-3-yl) methanone]",43.9 nM
5,"C[C@H]1c2nn(C)c(-c3cc(F)c(F)c(F)c3)c2CCN1C(=O)c1ccc2nnc(C(F)F)n2c1 [Example 440, [3-(Difluoromethyl)-[1,2,4]triazolo[4,3-a]pyridin-6-yl]-[(7S)-2,7-dimethyl-3-(3,4,5-trifluorophenyl)-5,7-dihydro-4H-pyrazolo[3,4-c]pyridin-6-yl]methanone]",865 nM
6,"C[C@H]1c2nn(C)c(-c3ccc(Cl)c(Cl)c3)c2CCN1C(=O)c1ccc2ncccc2c1 [Example 507, [(7S)-3-(3,4-Dichlorophenyl)-2,7-dimethyl-5,7-dihydro-4H-pyrazolo[3,4-c]pyridin-6-yl]-(6-quinolyl)methanone]",15.2 nM
7,"C[C@H]1c2nn(C)c(-c3cccc4cc[nH]c34)c2CCN1C(=O)c1ccc2ncccc2c1 [Example 531, [(7S)-3-(1H-Indol-7-yl)-2,7-dimethyl-5,7-dihydro-4H-pyrazolo[3,4-c]pyridin-6-yl]-(6-quinolyl)methanone]",22.9 nM
8,"COc1nccc(C(=O)N2CCc3c(nn(C)c3-c3ccc(F)c(C)c3)[C@@H]2C)c1C [Example 598, [(7S)-3-(4-Fluoro-3-methyl-phenyl)-2,7-dimethyl-5,7-dihydro-4H-pyrazolo[3,4-c]pyridin-6-yl]-(2-methoxy-3-methyl-4-pyridyl)methanone]",29.9 nM

# Same assay, conditions: 300 nM [Glycerol-1,3-3H]-oleyl glycerol, one hour incubation
row,SMILES,IC50
1,"C[C@H]1c2nn(C)c(-c3cc(F)c(F)c(F)c3)c2CCN1C(=O)c1cncc(-n2cccn2)c1 [Example 318, [(7S)-2,7-Dimethyl-3-(3,4,5-trifluorophenyl)-5,7-dihydro-4H-pyrazolo[3,4-c]pyridin-6-yl]-(5-pyrazol-1-yl-3-pyridyl)methanone]",178 nM
2,"C[C@H]1c2nn(C)c(-c3ccc(OC(F)F)c(F)c3)c2CCN1C(=O)c1ccc2nccnc2c1 [Example 189, (S)-(3-(4-(Difluoromethoxy)-3-fluorophenyl)-2,7-dimethyl-2,4,5,7-tetrahydro-6H-pyrazolo[3,4-c]pyridin-6-yl)(quinoxalin-6-yl)methanone]",102 nM
3,"C[C@H]1c2nn(C)c(-c3ccccc3)c2CCN1C(=O)c1ccc2ncccc2c1 (single isomer, unassigned) [Example 112]",6.96 nM
4,"C[C@H]1c2nn(C)c(-c3cccc(Cl)c3)c2CCN1C(=O)c1ncn(-c2ccccc2)n1 [Example 117, (S)-(3-(3-Chlorophenyl)-2,7-dimethyl-2,4,5,7-tetrahydro-6H-pyrazolo[3,4-c]pyridin-6-yl)(1-phenyl-1H-1,2,4-triazol-3-yl)methanone]",56.7 nM
5,"Cn1nc2c(c1-c1ccccc1)CCN(C(=O)c1cccc3ccccc13)C2 [Example 1, (2-Methyl-3-phenyl-2,4,5,7-tetrahydro-6H-pyrazolo[3,4-c]pyridin-6-yl)(naphthalen-1-yl)methanone]",13 nM
6,"C[C@H]1c2nn(C)c(-c3cc(F)c(F)c(F)c3)c2CCN1C(=O)c1cccc(F)c1-n1nccn1 [Example 195, (S)-(2,7-Dimethyl-3-(3,4,5-trifluorophenyl)-2,4,5,7-tetrahydro-6H-pyrazolo[3,4-c]pyridin-6-yl)(3-fluoro-2-(2H-1,2,3-triazol-2-yl)phenyl)methanone]",309 nM
7,"COc1ccnc(C(=O)N2CCc3c(nn(C)c3-c3cc(F)c(F)c(F)c3)[C@@H]2C)c1 [Example 309, [(7S)-2,7-Dimethyl-3-(3,4,5-trifluorophenyl)-5,7-dihydro-4H-pyrazolo[3,4-c]pyridin-6-yl]-(4-methoxy-2-pyridyl)methanone]",219 nM
8,"CC1c2nn(C)c(-c3ccc4c(ccn4C)c3)c2CCN1C(=O)c1ccc2ncccc2c1 (centres unmarked) [Example 252, (2,7-Dimethyl-3-(1-methyl-1H-indol-5-yl)-2,4,5,7-tetrahydro-6H-pyrazolo[3,4-c]pyridin-6-yl)(quinolin-6-yl)methanone]",631 nM
9,"CC1c2nn(C(F)(F)F)c(-c3cc(F)cc(F)c3)c2CCN1C(=O)c1ccc2ncccc2c1 (centres unmarked) [Example 156, (3-(3,5-Difluorophenyl)-7-methyl-2-(trifluoromethyl)-2,4,5,7-tetrahydro-6H-pyrazolo[3,4-c]pyridin-6-yl)(quinolin-6-yl)methanone]",17 nM
10,"C[C@@H]1c2nn(C)c(-c3cc(F)cc(Cl)c3)c2CCN1C(=O)c1ccc2nccnc2c1 [Example 182, (R)-(3-(3-Chloro-5-fluorophenyl)-2,7-dimethyl-2,4,5,7-tetrahydro-6H-pyrazolo[3,4-c]pyridin-6-yl)(quinoxalin-6-yl)methanone]",> 10000 nM
11,"CCc1c(OC)cccc1C(=O)N1CCc2c(nn(C)c2-c2ccccc2)C1 [Example 8, (2-Ethyl-3-methoxyphenyl)(2-methyl-3-phenyl-2,4,5,7-tetrahydro-6H-pyrazolo[3,4-c]pyridin-6-yl)methanone]",1840 nM
12,"COc1cnc(C(=O)N2CCc3c(nn(C)c3-c3cc(F)c(F)c(F)c3)[C@@H]2C)cn1 [Example 326, [(7S)-2,7-Dimethyl-3-(3,4,5-trifluorophenyl)-5,7-dihydro-4H-pyrazolo[3,4-c]pyridin-6-yl]-(5-methoxypyrazin-2-yl)methanone]",522 nM
13,"C[C@H]1c2nn(C)c(-c3cc(F)c(F)c(F)c3)c2CCN1C(=O)c1cn(C)c2ccncc12 [Example 219, (S)-(2,7-Dimethyl-3-(3,4,5-trifluorophenyl)-2,4,5,7-tetrahydro-6H-pyrazolo[3,4-c]pyridin-6-yl)(1-methyl-1H-pyrrolo[3,2-c]pyridin-3-yl)methanone]",28.6 nM
14,"Cn1nc2c(c1-c1ccccc1)CCN(C(=O)c1ccc3[nH]ncc3c1)C2 [Example 64, (1H-Indazol-5-yl)(2-methyl-3-phenyl-2,4,5,7-tetrahydro-6H-pyrazolo[3,4-c]pyridin-6-yl)methanone]",56.2 nM
15,"Cn1nc2c(c1-c1ccccc1)CCN(C(=O)c1cccc3sccc13)C2 [Example 38, Benzo[b]thiophen-4-yl(2-methyl-3-phenyl-2,4,5,7-tetrahydro-6H-pyrazolo[3,4-c]pyridin-6-yl)methanone]",68 nM
